According to patent US5061794A, “Cephalosporin derivatives, and antibacterial agents” (priority 1986, dated 1991):
Values after ≈ are worked out from the molar mass of the structure shown. Read-outs that look alike come from different tables or passages of the source.

Legend:
K. pneumoniae PCI-602 = test: in vitro antibacterial activity, agar plate dilution method (MIC); type: cell-based; conditions: Klebsiella pneumoniae, PCI602, 16 h, read-out: Minimum Inhibitory Concentration (MIC), K. pneumoniae PCI-602; 10^6 CFU/ml
In short: (§1)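 Plate dilution on Mueller Hinton agar with various antibiotic concentrations. Inoculum size was 10^6 CFU/ml, incubation 16 hours at 37° C.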

S. marcescens No. 16-2 = test: as above; type: cell-based; conditions: Serratia marcescens, NO.162, 16 h
In short: as §1

K. pneumoniae No. 42 = test: as above; type: cell-based; conditions: Klebsiella pneumoniae, NO.42, 16 h, read-out: Minimum Inhibitory Concentration (MIC), *K. pneumoniae No. 42, lactamase-producing strain; 10^6 CFU/ml
In short: as §1

E. coli GN5482 = test: as above; type: cell-based; conditions: Escherichia coli, GN5482, 16 h
In short: as §1

E. cloacae 963 = test: as above; type: cell-based; conditions: 10^6 CFU/ml
In short: as §1

P. vulgaris No. 33 = test: as above; type: cell-based; conditions: Proteus vulgaris, NO.33, 16 h, read-out: Minimum Inhibitory Concentration (MIC), *P. vulgaris No. 33, lactamase-producing strain; 10^6 CFU/ml
In short: as §1

P. vulgaris HX-19 = test: as above; type: cell-based; conditions: Proteus vulgaris, HX19, 16 h, read-out: Minimum Inhibitory Concentration (MIC)
In short: as §1

M. morganii GN5407 = test: as above; type: cell-based; conditions: Morganella morganii, GN5407, 16 h, read-out: Minimum Inhibitory Concentration (MIC), *M. morganii GN5407, lactamase-producing strain; 10^6 CFU/ml
In short: as §1

E. coli NIHJ JC2 = test: as above; type: cell-based; conditions: Escherichia coli, NIHJJC2, 16 h, read-out: Minimum Inhibitory Concentration (MIC), E. coli NIHJ JC2, 10^6 CFU/ml, 37° C.
In short: as §1

K. oxytoca GN10650 = test: as above; type: cell-based; conditions: Klebsiella oxytoca, GN10650, 16 h, read-out: Minimum Inhibitory Concentration (MIC), *K. oxytoca GN10650, lactamase-producing strain; 10^6 CFU/ml
In short: as §1

E. cloacae Nek 39 = test: as above; type: cell-based; conditions: Enterobacter cloacae, NEK39, 16 h, read-out: Minimum Inhibitory Concentration (MIC), *E. cloacae Nek 39, lactamase-producing strain; 10^6 CFU/ml
In short: as §1

S. aureus 209P NIHJ-JC1 = test: as above; type: cell-based; conditions: Staphylococcus aureus, 16 h
In short: as §1

S. marcescens IAM 1184 = test: as above; type: cell-based; conditions: Serratia marcescens, IAM1184, 16 h, read-out: Minimum Inhibitory Concentration (MIC)
In short: as §1

A. calcoaceticus No. 4 = test: as above; type: cell-based, Acinetobacter calcoaceticus; conditions: Acinetobacter calcoaceticus, NO.4, 16 h, 10^6 CFU/ml
In short: as §1

E. coli CSH(RE45) = test: microbe, parasite or virus in culture; type: cell-based; conditions: Escherichia coli, 16 h, read-out: Minimum Inhibitory Concentration (MIC), *E. coli CSH(RE45), lactamase-producing strain; 10^6 CFU/ml
In short: as §1

E. coli CSH2 (RK1) = test: microbe, parasite or virus in culture; type: cell-based; conditions: Escherichia coli, 16 h, read-out: Minimum Inhibitory Concentration (MIC), *E. coli CSH2 (RK1), lactamase-producing strain; 10^6 CFU/ml
In short: as §1

Ps. aeruginosa IF03445 = test: in vitro antibacterial activity, agar plate dilution method (MIC); type: cell-based, Pseudomonas aeruginosa; conditions: Pseudomonas aeruginosa, IF03445, 16 h, read-out: Minimum Inhibitory Concentration (MIC), Ps. aeruginosa IF03445; 10^6 CFU/ml
In short: as §1

Ps. aeruginosa AK 109 = test: as above; type: cell-based, Pseudomonas aeruginosa; conditions: Pseudomonas aeruginosa, AK109, 16 h
In short: as §1

Ps. aeruginosa AKR17 = test: as above; type: cell-based, Pseudomonas aeruginosa; conditions: Pseudomonas aeruginosa
In short: as §1

Ps. cepacia 23 = test: as above; type: cell-based, Pseudomonas cepacia; conditions: read-out: Minimum Inhibitory Concentration (MIC)
In short: as §1

[1] = read-out: Minimum Inhibitory Concentration (MIC)
[2] = Enterobacter cloacae, 963, 16 h, read-out: Minimum Inhibitory Concentration (MIC), E. cloacae 963
[3] = read-out: Minimum Inhibitory Concentration (MIC), S. aureus 209P NIHJ-JC1, 10^6 CFU/ml, 37° C., 16 hours
[4] = S. marcescens IAM 1184, 10^6 CFU/ml
[5] = read-out: Minimum Inhibitory Concentration (MIC), A. calcoaceticus No. 4
[6] = read-out: Minimum Inhibitory Concentration (MIC), Ps. aeruginosa AK 109, 10^6 CFU/ml
[7] = Burkholderia cepacia, 16 h, Ps. cepacia 23, 10^6 CFU/ml
[8] = read-out: Minimum Inhibitory Concentration (MIC), *E. coli GN5482, lactamase-producing strain, 10^6 CFU/ml
[9] = Enterobacter cloacae, 16 h, E. cloacae 963, read-out: Minimum Inhibitory Concentration (MIC)
[10] = 16 h, Ps. aeruginosa AKR17, 10^6 CFU/ml, read-out: Minimum Inhibitory Concentration (MIC)
[11] = read-out: Minimum Inhibitory Concentration (MIC), *S. marcescens No. 16-2, lactamase-producing strain, 10^6 CFU/ml
[12] = A. calcoaceticus No. 4, read-out: Minimum Inhibitory Concentration (MIC)

SMILES | MIC (K. pneumoniae PCI-602) [µg/mL] | MIC (S. marcescens No. 16-2; [1]) [µg/mL] | MIC (K. pneumoniae No. 42) [µg/mL] | MIC (E. coli GN5482; [1]) [µg/mL] | MIC (E. cloacae 963; [2]) [µg/mL] | MIC (P. vulgaris No. 33) [µg/mL] | MIC (P. vulgaris HX-19; P. vulgaris HX-19, 10^6 CFU/ml) [µg/mL] | MIC (M. morganii GN5407) [µg/mL] | MIC (E. coli NIHJ JC2) [µg/mL] | MIC (K. oxytoca GN10650) [µg/mL] | MIC (E. cloacae Nek 39) [µg/mL] | MIC (S. aureus 209P NIHJ-JC1; [3]) [µg/mL] | MIC (S. marcescens IAM 1184; [4]) [µg/mL] | MIC (A. calcoaceticus No. 4; [5]) [µg/mL] | MIC (E. coli CSH(RE45)) [µg/mL] | MIC (E. coli CSH2 (RK1)) [µg/mL] | MIC (Ps. aeruginosa IF03445) [µg/mL] | MIC (Ps. aeruginosa AK 109; [6]) [µg/mL] | MIC (Ps. cepacia 23; [7]) [µg/mL] | MIC (Ps. aeruginosa AKR17; [10]) [µg/mL] | other results
Nc1nc(C(=NOC2(C(=O)O)CC2)C(=O)NC2C(=O)N3C(C(=O)O)=C(CSc4nc(-c5ccc(O)c(O)c5)cs4)CSC23)cs1 (stereo not drawn) [Ex. 45, disodium 7β-[2-(2-aminothiazol-4-yl)-2-(1-carboxvlate-1-cyclopropoxyimino)acetamido]-3-[4-(3,4-dihvdroxvphenyl)thiazol-2-yl]thiomethyl-3-cephem-4-carboxylate] | < 0.006 | 0.39 | 0.1 | 0.39 | 0.05 | 0.025 | < 0.006 | 0.05 | 0.2 | 0.1 | 0.05 | 6.25 | 0.05 | 0.1 | 0.05 | 0.025 | 0.78 | 0.78 | < 0.006 |  | MIC (Ps. aeruginosa AKR17; AKR17, 16 h, read-out: Minimum Inhibitory Concentration (MIC), Ps. aeruginosa AKR17, 10^6 CFU/ml): 6.25 µg/mL
CCON=C(C(=O)N[C@@H]1C(=O)N2C(C(=O)[O-])=C(CSc3nc(-c4ccc(OC(C)=O)c(OC(C)=O)c4)cs3)CS[C@H]12)c1csc(N)n1.[Na+] [Ex. 49, sodium 3-[4-(3,4-diacetoxyphenyl)-thiazol-2-yl]thiomethyl-7β-[2-(2-aminothiazol-4-yl)-2-ethoxyiminoacetamido]-3-cephem-4-carboxylate] | < 0.006 | 3.12 | 0.05 |  | 0.1 | 0.05 |  | 0.1 | 0.39 | 6.25 | 0.78 | 1.56 |  | 0.39 | 0.05 | 0.025 | 0.78 | 0.78 |  |  | MIC (E. coli GN5482; [8]): 1.56 µg/mL; MIC (P. vulgaris HX-19): 0.0125 µg/mL; MIC (S. marcescens IAM 1184): 0.1 µg/mL; MIC (Ps. aeruginosa AKR17; AKR17, 16 h, read-out: Minimum Inhibitory Concentration (MIC)): 100 µg/mL; MIC (Ps. cepacia 23; Burkholderia cepacia, 23, 16 h): 0.05 µg/mL
CON=C(C(=O)NC1C(=O)N2C(C(=O)O)=C(CSc3nc(C(=O)O)c(-c4ccc(O)c(O)c4)s3)CSC12)c1csc(N)n1 (stereo not shown) [Ex. 52] | < 0.006 | 12.5 (≈ 18.8 µM) | 0.1 (≈ 0.15 µM) | 3.12 (≈ 4.69 µM) |  | 0.1 (≈ 0.15 µM) |  | 0.1 (≈ 0.15 µM) | 0.39 (≈ 0.587 µM) | 6.25 (≈ 9.4 µM) | 0.78 (≈ 1.17 µM) |  | 0.1 (≈ 0.15 µM) | 0.39 (≈ 0.587 µM) | 0.05 (≈ 0.0752 µM) | 0.0125 (≈ 0.0188 µM) | 6.25 (≈ 9.4 µM) |  | 0.025 (≈ 0.0376 µM) | > 100 | MIC (E. cloacae 963; [9]): 0.1 µg/mL (≈ 0.15 µM); MIC (P. vulgaris HX-19): 0.0125 µg/mL (≈ 0.0188 µM); MIC (S. aureus 209P NIHJ-JC1; [1]): 12.5 µg/mL (≈ 18.8 µM); MIC (Ps. aeruginosa AK 109; [1]): 12.5 µg/mL (≈ 18.8 µM)
C#CCON=C(C(=O)NC1C(=O)N2C(C(=O)O)=C(CSc3nc(C(=O)O)c(-c4ccc(O)c(O)c4)s3)CSC12)c1csc(N)n1 (stereo not shown) [Ex. 56, disodium 78-[2-(2-aminothiazol-4-yl)-2-proparqyloxyiminoacetamido]-3-[4-carboxylate-5-(3,4-dihydroxyphenyl)thiazol-2-yl]thiomethyl-3-cephem-4-carboxylate] | < 0.006 |  | 0.1 | 3.12 |  | 0.05 | < 0.006 | 0.05 | 0.78 | 12.5 | 0.78 | 6.25 | 0.05 |  | 0.025 | 0.0125 | 3.12 | 6.25 | < 0.006 | 100 | MIC (S. marcescens No. 16-2; [11]): 6.25 µg/mL; MIC (E. cloacae 963; [9]): 0.2 µg/mL; MIC (A. calcoaceticus No. 4; [12]): 0.2 µg/mL
CON=C(C(=O)NC1C(=O)N2C(C(=O)O)=C(CSc3ncc(-c4ccc(O)c(O)c4)o3)CSC12)c1csc(N)n1 (stereo not shown) [Ex. 62, sodium 75-[2-(2-aminothiazol-4-yl)-2-methoxyiminoacetamido]-3-[5-(3,4-dihydroxyphenyl)-oxazol-2-yl]thiomethyl-3-cephem-4-carboxylate] | < 0.006 |  | 0.025 |  | 0.05 | 0.025 | < 0.006 | 0.1 | 0.2 | 3.12 | 0.78 | 1.56 | 0.025 |  | 0.05 | 0.025 | 1.56 |  | < 0.006 | > 100 | MIC (S. marcescens No. 16-2; [11]): 6.25 µg/mL; MIC (E. coli GN5482; [8]): 1.56 µg/mL; MIC (A. calcoaceticus No. 4; [12]): 0.2 µg/mL; MIC (Ps. aeruginosa AK 109; [1]): 3.12 µg/mL
